According to patent US20140045937A1, “METHODS OF TREATING POLYCYSTIC OVARIAN SYNDROME USING CHLOROGENIC ACID” (Oculus Innovative Sciences, Inc., priority 2012, published 2014):

Key:
[1] = system: PCOS and/or anovulation in female patients; experiment: GLUCOREIN beverage (chlorogenic acid and L-cysteine) in anovulatory female patients with PCOS symptoms attempting to become pregnant; format: in vivo, human; conditions: CLOMID added to GLUCOREIN regimen after three months; three patients with body mass index over 35; read after four months of treatment
Protocol: Ten female patients, between the ages of 25 and 37, each anovulatory, were evaluated. […] Chronic anovulation is a common cause of infertility. These patients were also attempting to become pregnant and presented with multiple symptoms of PCOS. Their diets were supplemented with GLUCOREIN medical food beverage (a powdered solid including the components set forth in Table 1 mixed in 8 ounces of water). Per instructions for use, the patients each consumed one eight-ounce serving of the GLUCOREIN beverage each day, typically in the morning hours.
After four months of treatment, with all ten patients continuing with the protocol, the results were as follows: […]

PCOS = conditions: variety of clinical trials, literature; cited from earlier work

Compound | patients who tested positive for ovulation [1] | treatment or prevention of PCOS (PCOS)
CCN(CC)CCOc1ccc(C(=C(Cl)c2ccccc2)c2ccccc2)cc1 [CLOMID, clomiphene] | none | 
CC(=O)N[C@@H](CS)C(=O)O [NAC, N-acetyl-L-cysteine] |  | shown to treat or prevent PCOS
